From US8192854B2, “Microbial fuel cell treatment of ethanol fermentation process water” (priority 2009, dated 2012)

System: inhibitor-consuming microbial consortium in a microbial fuel cell (MFC-A)
Experiment: Effect of inhibitor concentration on electricity production, air-cathode MFC
Details: 0.1 g/L to 2 g/L (20.8 mM)
Experimental: After confirmation of electricity production from individual inhibitor molecules, the effect of inhibitor concentration on their removal and electricity production was studied. The experiments were conducted by adding each of the substrates individually, at the various concentrations to study substrate inhibition. From day 51 to 62, HB was used as the energy source for the MFC at concentrations from 0.1 to 1 g/L. From day 63 to day 82, 2-furfural was used as the energy source at a concentration from 0.05 to 2 g/L. From day 83 to day 101, VA was used as the substrate from 0.05 to 4 g/L, followed by use of HMF as substrate from day 129 to day 150 at a concentration from 0.2 to 2 g/L. The MFC was operated with 2-furfural as the substrate between day 102 to 128. Effect of acetate was studied in MFC-B up to a concentration of 10 g/L. The voltage output was monitored at each concentration for a period of up to five days. The effect of 2-furfural on electricity production was studied at a concentration from 0.1 g/L to 2 g/L (20.8 mM) using an air-cathode MFC. […] It should be noted that the substrate utilization was limited by the cathode side in an air-cathode MFC used in this study. […] The effect of acetate concentration was also studied in a different MFC (MFC-B) using a consortium enriched on acetate.

O=Cc1ccco1 [2-furfural]
inhibition of electricity production: No inhibition
